Active and inactive are the calls of the source.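 How the source made its calls: active means concentration giving half-maximal inhibition at or below 20 micromolar; inactive means half-maximal concentration above 20 micromolar, or not dose tested.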

For this assay, the system named is Jurkat E6.1 viability, ATP luminescence, 48 h. As to the kind of experiment: cytotoxicity toward Jurkat T cells, primary screen, cell-based, Jurkat E6.1, NIH starter set (AID 364).
Consider `N#CC1=C(SCC(=O)c2ccccc2)NC2=C(C(=O)CCC2)C1c1ccco1` (configuration not stated), for which the CC50 (commonly the concentration that lowers cell viability or growth by half) is 1280 nM.
Turning to `CC(=O)/C(C#N)=C1\NC(=O)C(Cc2ccccc2Cl)S1` (configuration not stated), the CC50 was > 20000 nM (inactive).
Under `COc1cccc(NC(=O)CSC2=C(C#N)C(c3ccco3)C3=C(CCCC3=O)N2)c1` (configuration not stated) stands 4730 nM; under `Cc1ccc(NC(=O)CSc2nnc(-c3ccco3)c(-c3ccco3)n2)cc1`, 1710 nM; under `COc1ccccc1-c1nnc2n1N=C(c1ccc(O)c(O)c1)CS2`, 58.2 nM.
Under `N#CC1=C(N)NC(SCc2ccc(F)cc2)=C(C#N)C12CCCCC2` stands 8190 nM; under `Cn1c(Cl)cnc1C1CC(=O)c2cc(Cl)ccc2O1` (configuration not stated), 7300 nM; under `CCCOc1ccc2nc(NC(=O)OC)[nH]c2c1`, 178 nM.
Under `CC[C@]1(O)CC2CN(CCc3c([nH]c4ccccc34)[C@@](C(=O)OC)(c3cc4c(cc3OC)N(C=O)[C@H]3[C@@](O)(C(=O)OC)[C@H](OC(C)=O)[C@]5(CC)C=CCN6CC[C@]43[C@@H]65)C2)C1` (some centres not stated) stands under 3 nM.
Consider `O=c1[nH]c(=O)n([C@H]2C[C@H](O)[C@@H](CO)O2)cc1F`, for which the CC50 was 2730 nM.
As for `N#CC1=C(SCC(=O)c2ccc(Br)cc2)NC2=C(C(=O)CCC2)C1c1ccco1` (configuration not stated), the CC50 is 3050 nM.
In the case of `COC(=O)CSc1nnc2n(-c3ccc(OC)cc3)c(=O)c3c4c(sc3n12)CCCCC4`, the CC50 is > 20000 nM (inactive).
The figure for `COc1ccc(C(=O)C(CN2CCCC2)c2ccccc2)cc1` (configuration not stated) is 7210 nM; for `CC[C@H]1CN2CCc3cc(OC)c(OC)cc3[C@@H]2C[C@@H]1C[C@H]1NCCc2cc(OC)c(OC)cc21` it is 58.2 nM.
The figure for `Cc1cccc(-c2nnc3n2N=C(c2ccc(Br)cc2)CS3)c1` is > 20000 nM (inactive); for `COc1ccc(C2=Nn3c(nnc3-c3ccccc3)SC2)cc1OC` it is 5630 nM; for `COc1ccc(Nc2cc(C)nc(-n3nc(C)cc3C)n2)cc1` it is 188 nM.
The figure for `CCCCCOc1ccc(C(=O)NCC(=O)NCC(=O)OCC)cc1` is > 20000 nM (inactive); for `CC(C)NCc1c(O)c(Br)cc2oc3c(c12)CCCC3` it is > 20000 nM (inactive).
Take `CC[C@]1(O)C[C@@H]2CN(CCc3c([nH]c4ccccc34)[C@@](C(=O)OC)(c3cc4c(cc3OC)N(C)[C@H]3[C@@](O)(C(=O)OC)[C@H](OC(C)=O)[C@]5(CC)C=CCN6CC[C@]43[C@@H]65)C2)C1`: the 50% cytotoxic concentration (CC50) was 13.6 nM.
`COC(=O)Nc1nc2ccc(C(=O)c3ccccc3)cc2[nH]1`: the CC50 was 229 nM.
In the case of `CC(=O)/C(C#N)=C1\NC(=O)C(Cc2ccccc2)S1` (configuration not stated), the CC50 is > 20000 nM (inactive).
Under `Clc1ccc(-n2ncc3c(NCc4ccco4)ncnc32)cc1` stands 3880 nM; under `CC(NC(=O)Nc1nnc(C(F)(F)F)s1)(C(F)(F)F)C(F)(F)F`, 2590 nM; under `COc1cccc(C2=CC(c3ccccc3)n3nnnc3N2)c1` (configuration not stated), 1770 nM.
Under `CCN(CC)c1ccc(-c2nn3c(-c4cccnc4)nnc3s2)cc1` stands 3270 nM; under `CC(=O)OC[C@H]1O[C@@H](n2ncc(=O)[nH]c2=O)[C@H](OC(C)=O)[C@@H]1OC(C)=O`, > 20000 nM (inactive); under `CO[C@H]1C[C@@H]2CC[C@@H](C)[C@@](O)(O2)C(=O)C(=O)N2CCCC[C@H]2C(=O)O[C@H]([C@H](C)C[C@@H]2CC[C@@H](O)[C@H](OC)C2)CC(=O)[C@H](C)C=C(C)[C@@H](O)[C@@H](OC)C(=O)[C@H](C)C[C@H](C)C=CC=CC=C1C`, > 20000 nM (inactive).
Under `N#CC1=C(SCC(=O)c2ccc(Cl)cc2)NC2=C(C(=O)CCC2)C1c1ccco1` (configuration not stated) stands 2790 nM; under `CCOc1ccc(C2=Nn3c(nnc3-c3ccccc3OC)SC2)cc1`, 26.7 nM; under `c1coc(CNc2ncnc3ccccc23)c1`, 2400 nM.
Regarding `COc1cc(C2C(C#N)=C(N)Oc3cc(N)ccc32)cc(OC)c1OC` (configuration not stated), the CC50 was 326 nM.
Under `c1ccc2c(c1)CCN(c1ncnc3c1[nH]c1ccccc13)C2` stands 1560 nM.
The figure for `C[C@H]1CCC/C=C/C2C[C@H](O)CC2[C@H](O)/C=C/C(=O)O1` (some centres not stated) is 368 nM; for `COc1ccc(C2=Nn3c(nnc3-c3ccccn3)SC2)cc1` it is 4780 nM.
Under `CCCSc1ccc2nc(NC(=O)OC)[nH]c2c1` stands 390 nM; under `COc1cccc2c(=O)c(SC(F)(F)C(F)C(F)(F)F)c(C)[nH]c12` (configuration not stated), 5130 nM.
As to `COc1ccc(OC)c(NS(=O)(=O)c2ccc(N3CCCC3=O)cc2)c1`, the 50% cytotoxic concentration (CC50) was 193 nM.
As for `CC1(c2ccccc2)NCCN2C(=O)CSC21` (configuration not stated), the CC50 is > 20000 nM (inactive).
The figure for `N=c1c2c(-c3ccccc3)c(-c3ccccc3)n(Cc3ccccc3)c2ncn1CCCn1ccnc1` is 19900 nM.
Under `COC(=O)Nc1nc2ccc(Sc3ccccc3)cc2[nH]1` stands 574 nM; under `Cc1ccc2nc(NCc3ccccc3)[nH]c2c1`, 3240 nM.
As to `Cc1ccc(C(=O)CSC2=C(C#N)C(c3ccco3)C3=C(CCCC3=O)N2)cc1` (configuration not stated), the CC50 is 2400 nM.
Under `COc1cccc(Cn2c(NCc3ccco3)nc3c2c(=O)n(C)c(=O)n3C)c1` stands 2550 nM.
Under `Fc1ccc2[nH]c3c(N4CCN(Cc5ccc6c(c5)OCO6)CC4)ncnc3c2c1` stands 2710 nM.
The figure for `CCc1nc(N)nc(N)c1-c1ccc(Cl)cc1` is 2600 nM; for `CCOC(=O)CSC1=C(C#N)C(c2ccc3c(c2)OCO3)CC(=O)N1` (configuration not stated) it is 6580 nM; for `COc1ccc2c(c1OC)C(=O)O[C@@H]2[C@H]1c2c(cc3c(c2OC)OCO3)CCN1C` it is > 20000 nM (inactive).
As to `CC(=O)O[C@H]1C(=O)[C@]2(C)[C@H]([C@H](OC(=O)c3ccccc3)[C@]3(O)C[C@H](OC(=O)[C@H](O)[C@@H](NC(=O)c4ccccc4)c4ccccc4)C(C)=C1C3(C)C)[C@]1(OC(C)=O)CO[C@@H]1C[C@@H]2O`, the CC50 is 43.4 nM.
Under `CC(=O)O[C@@]12CO[C@@H]1C[C@H](O)[C@@]1(C)C(=O)[C@H](O)C3=C(C)[C@@H](OC(=O)[C@H](O)[C@@H](NC(=O)OC(C)(C)C)c4ccccc4)C[C@](O)([C@@H](OC(=O)c4ccccc4)[C@H]21)C3(C)C` stands 55.6 nM.
Turning to `CCc1cn([C@H]2C[C@H](O)[C@@H](CO)O2)c(=O)[nH]c1=O`, the CC50 is > 20000 nM (inactive).
Under `COC(=O)/C(=C1/Oc2cc(C)oc(=O)c2S1)C(F)(F)F` stands 2850 nM.
On to `COc1ccc2c(c1OC)C(=O)N1c3ccccc3C(=O)N(c3ccccc3F)C21` (configuration not stated), for which the CC50 is > 20000 nM (inactive).
Under `c1cc2c(cc1C1=Nn3c(nnc3C3CCCCC3)SC1)OCO2` stands 6930 nM.
The figure for `Nc1nc(Cl)nc2c1ncn2[C@H]1C[C@H](O)[C@@H](CO)O1` is 1810 nM; for `COc1cccc2c1C(=O)c1c(O)c3c(c(O)c1C2=O)C[C@@](O)(C(C)=O)C[C@@H]3O[C@H]1C[C@H](N)[C@H](O)[C@H](C)O1` it is 151 nM; for `N#CC1=C2SCC(O)(c3ccccc3)N2C(=O)CC1c1ccccc1` (configuration not stated) it is 806 nM.
The figure for `COc1cccc(N2CCN(c3ncnc4c3[nH]c3ccc(F)cc34)CC2C)c1` (configuration not stated) is 2270 nM; for `COc1cccc2c1C(=O)c1c(O)c3c(c(O)c1C2=O)C[C@@](O)(C(=O)CO)C[C@@H]3O[C@H]1C[C@H](N)[C@H](O)[C@H](C)O1` it is 261 nM; for `COc1ccc(CCn2c(=N)c(C#N)cc3c(=O)n4ccccc4nc32)cc1` it is > 20000 nM (inactive).
As to `CCC(NC(=O)Nc1nnc(C(F)(F)F)s1)(C(F)(F)F)C(F)(F)F`, the CC50 is 2220 nM.
For `COc1cc([C@@H]2c3cc4c(cc3[C@H](O)[C@H]3COC(=O)[C@H]23)OCO4)cc(OC)c1OC`, the half-maximal cytotoxic concentration (CC50) is 34.9 nM.

The values above are taken from PubChem BioAssay AID364 (The Scripps Research Institute Molecular Screening Center, 2006).
